One assay relates to HOS-143B cells. The experiment in a line: Inhibition of induction of apoptosis, Caspase-3/7 activity assay in spheroids. The class given is cell-based, human. Particulars: U- and V-bottom 96-well plates coated with 0.5% solution diluted 4-fold and 8-fold; day 3 and day 6; concentration-dependent, more pronounced on day 6. The method, then: An aqueous solution of the polypeptide represented by formula (1) was added in two different concentrations (prepared by diluting a 0.5% solution 4-fold and 8-fold) at 100 μL/well and 200 μL/well respectively to two 96-well cell culture plates with different bottom shapes (plate #163320 with a U-shaped bottom; Corning, NY, USA, and plate #277143 with a V-shaped bottom; Thermo Fisher Scientific, MA, USA) and allowed to stand overnight at 4° C. Thereafter, the excess cell culture supplement was removed, and the remaining solution was dried in a clean bench for about 6 hours to complete the treatment with the cell culture supplement. […] After three days and six days, the apoptosis activity per well was measured by using a Caspase activity assay kit (Apo-ONE Homogeneous Caspase-3/7 Assay kit; Promega, WI, USA). […] Thereafter, 100 μL of the culture fluid was transferred to a black 96-well cell culture plate (#237105; Thermo Fisher Scientific, MA, USA), and the value of fluorescence at 590 nm (excitation light at 560 nm) was measured with a plate reader. The value determined by subtracting the value for reagent-only with no cells (blank value) from a measured value was considered to be the measured value for each day of culture, and the values compared to those of the plate not coated with the aqueous solution of the polypeptide represented by formula (1) (control) were plotted.

For assay [1], the system named is healthy human neonatal fibroblasts. Kind of assay: Immunostaining of stem cell marker proteins in neonatal fibroblast spheroids. It is filed as cell-based. The method, then:
To confirm whether stem cells were induced in fibroblast spheroids, the expression of stem cell marker proteins was examined by immunostaining with fluorescent dye-labeled antibodies. An aqueous solution of the polypeptide represented by formula (1) (0.125%) (cell culture supplement) was added to a commercial polystyrene-made 96-well round-bottom culture vessel (Nunclon Delta 96U Bottom, Thermo Fisher Scientific) at 100 μL/well, and the coating treatment with the cell culture supplement was completed in the same manner as in Example 2. Fibroblasts were maintained and cultured in a serum-free medium (Fujifilm Wako Pure Chemical Corporation; DMEM/F12 medium, human serum albumin recombinant 0.5 mg/ml, human transferrin recombinant 10 μg/mL, basic-FGF 5 ng/ml, and insulin 2.5 μg/mL). Fibroblasts floating in the medium were seeded in the culture vessel coated with the cell culture supplement at 4×10^4 cells/well/100 μL and cultured at 37° C. under 5% CO2 conditions. Spheroids were collected from the 96-well round-bottom culture vessel on day 20 from the start of culture, and cell fixation was performed with a 4% paraformaldehyde solution, followed by immunostaining. For fluorescence-labeled antibodies, three antibodies for detection of human stem cell marker proteins (NL557 fluorescent dye-labeled anti-SOX2 antibody (fluorescent orange), NL493 fluorescent dye-labeled anti-NANOG antibody (fluorescent green), and NL637-labeled anti-OCT4 antibody (fluorescent red), R&D Systems)) were used and reacted simultaneously to perform observation with a fluorescence microscope.

Assay [2] has as its system ES2 cells (human ovarian cancer cells). Kind of assay: Three-dimensional spheroid culture of cancer cells, microscope observation. It is filed as cell-based. Particulars: 6-well flat-bottom vessel coated with 0.125% solution; DMEM + 10% FBS; day 4 to day 15. The method, then: (§1) Method 2 mL of an aqueous solution of the polypeptide represented by formula (1) (0.125%) (cell culture supplement) was added to a commercial polystyrene-made 6-well flat-bottom culture vessel (CellBIND, Corning) and allowed to stand at 4° C. for 24 hours.
(§2) The cell culture supplement solution was then removed and the coated cell culture supplement was dried in a dryer at 37° C. for 96 hours to complete the cell culture supplement coating process. For human cancer cells, common cancer cell lines, A549 cells (human lung cancer cells, ATCC CCL-185, carcinoma), ES2 cells (human ovarian cancer cells, ATCC CRL-1978, clear cell carcinoma), and HOS-143 cells (human osteosarcoma cells, ATCC CRL-8303, osteosarcoma), were used. Each type of cancer cells was seeded in the culture vessel at 2×10^5 cells/well/[…] and cultured at 37° C. under 5% CO2. The medium for use was a DMEM medium supplemented with 10% FBS and penicillin/streptomycin. For a control, cancer cells were seeded in the same type of culture vessel that was not coated with the cell culture supplement at […]. Observation was performed with a microscope on day 4 and day 15 after the start of culture to capture images of spheroid formation (FIG. 18).

Assay [3] concerns A549 cells (human lung cancer cells). Described as above. The class given is cell-based. Particulars: 6-well flat-bottom vessel coated with 0.125% solution; DMEM + 10% FBS; day 4 to day 15. The method, then:
as §1, §2

The test system of assay [4] is HOS-143 cells (human osteosarcoma cells). The assay is described as above. It is filed as cell-based. Particulars: 6-well flat-bottom vessel coated with 0.125% solution; DMEM + 10% FBS; day 4 to day 15. The method, then: as §1, §2
Assay [5] has as its system HOS-143B (human osteosarcoma). Kind of assay: Study of concentration of cell culture supplement: spheroid formation. It is filed as cell-based. Particulars: 96-well flat-bottom plate, 3 days of culture. The method, then: An aqueous solution of the polypeptide represented by formula (1) (0.5%) was diluted 4-fold to 1024-fold to prepare different diluted solutions (cell culture supplement), and 100 μl of the solution was added to each well of a commercial 96-well flat-bottom plate (CellBIND, Corning) and allowed to stand at 4° C. for 16 hours.
Thereafter, the excess cell culture supplement was removed, and the remaining solution was dried under reduced pressure at room temperature for 24 hours. HOS-143B (human osteosarcoma) was seeded at 3,000 cells/well in a culture plate coated with the cell culture supplement and cultured at 37° C. under 5% CO2 conditions. The medium used was DMEM+10% FBS.

For “(Pro-Hyp-Gly)n [cell culture supplement]”, the “apoptosis (Caspase-3/7 activity) compared with uncoated plate” value in the assay with HOS-143B cells is recorded as “inhibited”. Further, the “NANOG stem cell marker protein, fluorescence (green)” value in assay [1] (spheroids day 20, NL493-labeled anti-NANOG antibody) is given as “detected”. For the same substance, in assay [1] (spheroids day 20, NL557-labeled anti-SOX2 antibody), the “SOX2 stem cell marker protein, fluorescence (orange)” value is given as “detected”. Also, the “OCT4 stem cell marker protein, fluorescence (red)” value in assay [1] (spheroids day 20, NL637-labeled anti-OCT4 antibody) is reported as “detected”. In addition, the spheroid formation entry in assay [2], in assay [3] and in assay [4] was “form spheroids” each time. Further, in assay [5], the “spheroid formation in plates coated with solutions diluted further than 256-fold” value is listed as “No formation of spheroids was observed”. In addition, the “dilution of the 0.5% aqueous solution used for coating at which formation of spheroids was observed” value in assay [5] (dilutions 4-fold to 1024-fold) was ≤ 256 -fold diluted.

These data come from patent US20240294881A1, “CELL CULTURE SUPPLEMENT FOR PRODUCING STEM CELLS, AND METHOD FOR PRODUCING STEM CELLS” (OPTICELL, INC, priority 2021, published 2024).
